Assay results published in US6579890B1, “Matrix metalloprotease inhibitors” (Syntex (U.S.A.) Inc., priority 1993, dated 2003).

melting point: 198 to 201 °C
SMILES: CC(C)(C)[C@H](NC(=O)[C@H](CCCc1ccc(-c2ccccc2)cc1)CC(=O)O)C(=O)Nc1ccncc1 [Example 32A, N-(2R-carboxymethyl-5-(biphen-4-yl)pentanoyl)-L-t-leucine-N′-(pyridin-4-yl)carboxamide]
